# pIC50: −log10 of the molar value. Where two headings read alike, the source gives them in different places.
# Experiments:
# [1] = target: T1, GST-Bcl-B (Homo sapiens, UniProt Q9HD36); test: Bcl-B/FITC-TR3-r8 fluorescence polarization competition (displacement) assay, HTS and dose-response; details: for Bcl-B H Coefficient: Hill coefficient of Bcl-B dose-response curve
# T1 sequence (Q9HD36 1-182 limits assumed): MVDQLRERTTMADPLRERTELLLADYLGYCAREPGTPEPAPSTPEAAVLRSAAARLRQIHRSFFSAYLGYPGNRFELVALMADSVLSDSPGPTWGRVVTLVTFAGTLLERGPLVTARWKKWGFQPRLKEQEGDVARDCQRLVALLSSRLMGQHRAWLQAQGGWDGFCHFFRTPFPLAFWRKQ
# [2] = target: T1, GST-Bcl-B; test: biochemical
# [3] = Table 8, NCI Structural library, Binding Assay, FP, Concentration 0.02 uM
# [4] = read-out: Result Value (Result Type % Inhibition), BCL-b/TR3
# [5] = Table 7, NCI Mechanistic library, Binding Assay, FP, Concentration 0.02 uM
# [6] = LOPAC1280 library primary screen
# [7] = LOPAC1280 library, fluorescence intensity normalized to plate negative controls
# [8] = read-out: Result Value (% Inhibition), LOPAC1280 (Sigma-Aldrich) library, BCL-b/TR3 Binding Assay, FP, Concentration 0.02 uM, % competition
# [9] = read-out: Result Value (% Inhibition)
# [10] = read-out: Result Value (Result Type % Inhibition), BCL-b/TR3, Table 8, NCI Structural library, Binding Assay, FP, Concentration 0.02 uM
# [11] = read-out: Result Value (Result Type % Inhibition), BCL-b/TR3, Table 7, NCI Mechanistic library, Binding Assay, FP, Concentration 0.02 uM
structure (smiles),measurement,setting,value
Cn1c(=O)cc2c3c(c(Nc4ccc(C=O)cc4)ccc31)C(=O)c1ccccc1-2 [Compound 5719776],Bcl-B H Coefficient,[1],2.489
same,pIC50,[2],5.09
CCSc1nc(NN)c2c3c(sc2n1)CN(C)CC3 [Compound 5683054],Bcl-B H Coefficient,[1],1.332
same,pIC50,[2],5.13
Nc1ccc(S(=O)(=O)O)c2cccc(O)c12 [Compound 5265894],Bcl-B H Coefficient,[1],2.075
same,pIC50,[2],5.98
O=C(O)C1Nc2c(C(=O)N3CCCC3)cccc2C2C=CCC12 (stereo not drawn) [Compound 5947449],Bcl-B H Coefficient,[1],1.761
same,pIC50,[2],5.31
Cc1c(Cl)ccc2c1NC(C(=O)O)C1CC=CC21 (stereo not drawn) [Compound 5659221],Bcl-B H Coefficient,[1],0.6773
same,pIC50,[2],5.28
Cc1ccc(-c2cc(C(=O)O)c3cc(Br)ccc3n2)o1 [Compound 6131498],Bcl-B H Coefficient,[1],1.896
same,pIC50,[2],4.78
CC(=O)c1cc(C#N)c(SCC(=O)c2ccc(O)c(O)c2)nc1C [Compound 6033363],Bcl-B H Coefficient,[1],2.08
same,pIC50,[2],4.96
CCOc1ccc(/C=C(/NC(=O)c2ccc(C)cc2)C(=O)NCCO)cc1 [Compound 5650022],Bcl-B H Coefficient,[1],1.428
same,pIC50,[2],4.88
COc1ccccc1NC(=O)C1=C(C)NC(SCC(=O)c2ccc(Br)cc2)=C(C#N)C1c1ccco1 (stereo not drawn) [Compound 5570547],Bcl-B H Coefficient,[1],18.57
same,pIC50,[2],5.20
O=C(O)C1C2CC=CC2c2cc(Oc3ccccc3)cc3c2N1CC1CC=CC31 (stereo not drawn) [Compound 5840196],Bcl-B H Coefficient,[1],2.774
same,pIC50,[2],5.38
CN(C)CCCNc1cc(O)c2c(c1O)C(=O)c1ccccc1C2=O [Compound 339585],F Ratio,[1]; [3],0.1416
same,Is Hit,[1]; [3],Yes
same,inhibition at 0.02 µM,[1]; [4],110%
CCN1C=C/C(=C\C=C\c2cc[n+](CC)c3ccccc23)C2C=CC=CC21 (stereo not drawn) [Compound 34391],F Ratio,[1]; [5],0.2486
same,Is Hit,[1]; [5],Yes
same,inhibition at 0.02 µM,[1]; [4],104%
CN(N=O)c1ccc(O)c(O)c1 [M 9440],Is Hit,[1]; [6],Yes
same,F Ratio,[1]; [7],0.08483
same,inhibition at 0.02 µM,[1]; [8],121%
Cc1ccc(/N=N/c2c(O)ccc3cc(S(=O)(=O)O)ccc23)cc1 [Compound 7814],F Ratio,[1]; [3],0.28
same,Is Hit,[1]; [3],Yes
same,inhibition at 0.02 µM,[1]; [4],54.3%
Cc1nc(/N=N\c2cc(S(=O)(=O)O)c3cc([N+](=O)[O-])cc(S(=O)(=O)O)c3c2)c(COP(=O)(O)O)c(C=O)c1O [P 2738],Is Hit,[1]; [6],Yes
same,F Ratio,[1]; [7],0.2636
same,inhibition at 0.02 µM,[1]; [9],66.6%
O=S(=O)(O)c1cc(/N=N/c2cc(S(=O)(=O)O)c3cccnc3c2O)ccc1/C=C/c1ccc(/N=N/c2cc(S(=O)(=O)O)c3cccnc3c2O)cc1S(=O)(=O)O [Compound 635352],F Ratio,[1]; [5],0.04471
same,Is Hit,[1]; [5],Yes
same,inhibition at 0.02 µM,[1]; [4],94%
CCN(CC)Cc1cc(/N=N/c2c(O)ccc3c(/N=N/c4ccc(O)c(CN(CC)CC)c4)c(O)ccc23)ccc1O [Compound 359463],F Ratio,[1]; [5],0.08773
same,Is Hit,[1]; [5],Yes
same,inhibition at 0.02 µM,[1]; [4],94.9%
CC1C2C=CC1C(c1c3ccc(=O)c(O)c-3oc3c(O)c(O)ccc13)C2C(=O)O (stereo not drawn) [Compound 119913],F Ratio,[1]; [3],0.0972
same,Is Hit,[1]; [3],Yes
same,inhibition at 0.02 µM,[1]; [4],131%
O=C(Nc1cc(C(=O)Nc2ccc(S(=O)(=O)O)cc2S(=O)(=O)O)cc(C(=O)Nc2ccc(S(=O)(=O)O)cc2S(=O)(=O)O)c1)Nc1cc(C(=O)Nc2ccc(S(=O)(=O)O)cc2S(=O)(=O)O)cc(C(=O)Nc2ccc(S(=O)(=O)O)cc2S(=O)(=O)O)c1 [N 4784],Is Hit,[1]; [6],Yes
same,F Ratio,[1]; [7],1.0398
same,inhibition at 0.02 µM,[1]; [9],64.7%
COC1/C2=C(\O)C3(C)Oc4c5c(O)c6c(O)c(c(CN(C)C)c(O)c6c4C3=O)NC(=O)/C(C)=C\C=C/CC(O)C(C)C(O5)C(C)C(OC2=O)C1C (stereo not drawn) [Compound 145612],F Ratio,[1]; [3],0.9609
same,Is Hit,[1]; [3],Yes
same,inhibition at 0.02 µM,[1]; [4],54%
Oc1cc(O)c2c(c1)OC(c1ccc(O)c(O)c1)C(O)C2c1c(O)cc(O)c2c1OC(c1ccc(O)c(O)c1)C(O)C2 (stereo not drawn) [Compound 143099],F Ratio,[1]; [3],0.1606
same,Is Hit,[1]; [3],Yes
same,inhibition at 0.02 µM,[1]; [4],84.6%
O=[N+]([O-])c1cccc2c(/N=N/c3ccc4ccccc4c3O)c(O)cc(S(=O)(=O)O)c12 [Compound 85561],F Ratio,[1]; [5],0.06489
same,Is Hit,[1]; [5],Yes
same,inhibition at 0.02 µM,[1]; [4],141%
O=C1C=C(NCCc2cc(Br)c(O)c(Br)c2)C(=O)c2ncccc21 [Compound 668394],F Ratio,[1]; [3],0.1777
same,Is Hit,[1]; [3],Yes
same,inhibition at 0.02 µM,[1]; [4],81.8%
O=C(c1cc(O)c(O)c([N+](=O)[O-])c1)c1ccccc1F [Compound R-108],Is Hit,[1]; [6],Yes
same,F Ratio,[1]; [7],0.1164
same,inhibition at 0.02 µM,[1]; [9],69.6%
C[C@H](Cc1ccc(O)c(O)c1)[C@@H](C)Cc1ccc(O)c(O)c1 [N 5023],Is Hit,[1]; [6],Yes
same,F Ratio,[1]; [7],0.09564
same,inhibition at 0.02 µM,[1]; [9],67.5%
O=C1C=C(N2CCNCC2)C(=O)c2c(O)ccc(O)c21 [Compound 658144],Is Hit,[1]; [5],Yes
Nc1ccc(-c2ccc(Nc3cc(S(=O)(=O)O)c(N)c4c3C(=O)c3ccccc3C4=O)cc2)c(S(=O)(=O)O)c1 [Compound 125910],F Ratio,[1]; [3],0.2439
same,Is Hit,[1]; [3],Yes
same,inhibition at 0.02 µM,[1]; [4],123%
O=[N+]([O-])c1cc(Cc2cc([N+](=O)[O-])c3cccnc3c2O)c(O)c2ncccc12 [Compound 130798],F Ratio,[1]; [3],0.1969
same,Is Hit,[1]; [3],Yes
same,inhibition at 0.02 µM,[1]; [10],115%
O=[N+]([O-])c1ccc(S(=O)(=O)Cc2ccccc2)c2nonc12 [Compound 228148],F Ratio,[1]; [3],1.1364
same,Is Hit,[1]; [3],Yes
same,inhibition at 0.02 µM,[1]; [4],73.4%
CN(C)CCN1C(=O)c2cccc3cc(N)cc(c23)C1=O [Compound 308847],F Ratio,[1]; [5],0.6345
same,Is Hit,[1]; [5],Yes
same,inhibition at 0.02 µM,[1]; [11],87.6%
CCN(CCO)CCNc1ccc(C)c2sc3ccccc3c(=O)c12 [Compound 20534],F Ratio,[1]; [5],0.6411
same,Is Hit,[1]; [5],Yes
same,inhibition at 0.02 µM,[1]; [4],74.4%
O=S(=O)(O)c1cc(/N=N/c2cc(S(=O)(=O)O)c3ccccc3c2O)ccc1/C=C/c1ccc(/N=N/c2cc(S(=O)(=O)O)c3ccccc3c2O)cc1S(=O)(=O)O [Compound 34931],F Ratio,[1]; [5],0.0509
same,Is Hit,[1]; [5],Yes
same,inhibition at 0.02 µM,[1]; [4],80.3%
COc1ccc2c(c1)-c1nn(CCCN(C)C)c3ccc([N+](=O)[O-])c(c13)N2 [Compound 627168],F Ratio,[1]; [5],0.1807
same,Is Hit,[1]; [5],Yes
same,inhibition at 0.02 µM,[1]; [11],64.4%
O=C1C(Cl)=C(Sc2nnc3c4ccccc4c4ccccc4c3n2)C(=O)c2ccccc21 [Compound 327705],F Ratio,[1]; [3],0.2306
same,Is Hit,[1]; [3],Yes
same,inhibition at 0.02 µM,[1]; [10],56.3%
Ic1ccc2c(c1)N(c1ccccc1)c1cc(Nc3ccc4nc5ccc(I)cc5[n+](-c5ccccc5)c4c3)ccc1N2 [Compound 402959],F Ratio,[1]; [3],0.6261
same,Is Hit,[1]; [3],Yes
same,inhibition at 0.02 µM,[1]; [4],61.8%
O=C(O)/C=C/c1c2ccc(=O)c(O)c-2oc2c(O)c(O)ccc12 [Compound 119911],F Ratio,[1]; [3],0.07992
same,Is Hit,[1]; [3],Yes
same,inhibition at 0.02 µM,[1]; [4],123%
O=C(O)CCc1c2ccc(=O)c(O)c-2oc2c(O)c(O)ccc12 [Compound 119915],F Ratio,[1]; [3],0.5317
same,Is Hit,[1]; [3],Yes
same,inhibition at 0.02 µM,[1]; [4],158%
N=C(N)NCCCS(=O)(=O)Nc1ccc(Nc2c3ccccc3nc3cc([N+](=O)[O-])ccc23)cc1 [Compound 177365],F Ratio,[1]; [5],0.439
same,Is Hit,[1]; [5],Yes
same,inhibition at 0.02 µM,[1]; [4],51.9%
C=CCN1C(=O)NC(=O)/C(=C/c2cccn2-c2cccc([N+](=O)[O-])c2)C1=O [Compound 5987504],pIC50,[1]; Bcl-B IC50 (g/L),5.25
same,IC50,[1]; Bcl-B IC50 (uM),5.36 µM
same,Bcl-B H Coefficient,[1],1.773
N=C1C=CC(=C(c2ccc(N)cc2)c2ccc(N)cc2)C=C1 [Compound 10460],F Ratio,[1]; [3],0.1378
same,Is Hit,[1]; [3],Yes
same,inhibition at 0.02 µM,[1]; [4],81.7%
O=C1c2ccccc2C(=O)c2c(O)c(O)cc(O)c21 [Compound 10447],F Ratio,[1]; [5],0.5532
same,Is Hit,[1]; [5],Yes
same,inhibition at 0.02 µM,[1]; [4],146%
NC(Cc1cc(O)c(O)cc1O)C(=O)O (stereo not drawn) [H 2380],F Ratio,[1],0.06315
same,Is Hit,[1],Yes
same,inhibition at 0.02 µM,[1]; [9],136%
O=[N+]([O-])c1cc(O)c(O)c([N+](=O)[O-])c1 [Compound D-131],Result Value (% Inhibition),"[1]; LOPAC1280 (Sigma-Aldrich) library, BCL-b/TR3 Binding Assay, FP, Concentration 0.02 uM, % competition",68.095%
same,Is Hit,[1]; [6],Yes
same,F Ratio,[1]; [7],0.1464
CN(N=O)c1cc(O)ccc1O [D 8065],Is Hit,[1]; [6],Yes
same,F Ratio,[1]; [7],0.1152
same,inhibition at 0.02 µM,[1]; [8],95.3%
Oc1ccc(Cc2nccc3cc(O)c(O)cc23)cc1O [Compound 99799],F Ratio,[1]; [3],0.09369
same,Is Hit,[1]; [3],Yes
same,inhibition at 0.02 µM,[1]; [4],77.4%
Oc1cc(O)c2c(c1)OC(c1ccc(O)c(O)c1)C(OC1(c3cc(O)c(O)c(O)c3)Oc3cc(O)cc(O)c3C(O)C1O)C2 (stereo not drawn) [Compound 143101],F Ratio,[1]; [3],0.1869
same,Is Hit,[1]; [3],Yes
same,inhibition at 0.02 µM,[1]; [4],82.8%
O=C1c2cc([N+](=O)[O-])ccc2-c2ccc3c4ccc5c6c(ccc(c7ccc1c2c73)c64)C(=O)c1cc([N+](=O)[O-])ccc1-5 [Compound 51535],F Ratio,[1]; [3],0.4823
same,Is Hit,[1]; [3],Yes
same,inhibition at 0.02 µM,[1]; [4],146%

# — patent US20090118135A1, “METHODS AND COMPOUNDS FOR REGULATING APOPTOSIS” (The Burnham Institute, priority 2007, published 2009)
